The values that follow come from patent US20110251229A1 (priority 2007, published 2011).

The target in one assay is T1, human TLR4 (Homo sapiens, UniProt O00206).
T1 construct: host or cells: HEK 293
The format is cell-based.

The next assay has as its system TLR4 mRNA. Kind of assay: TLR4 mRNA expression in lumbar dorsal spinal cord after chronic intrathecal opioids. As to conditions: 15 μg intrathecal once daily for 7 days, relative to GAPDH. The format is in vivo, rat.
Assay [1] concerns rats with chronic constriction injury of the sciatic nerve. The assay is described as follows: Chronic constriction injury (CCI)-induced allodynia, von Frey test. The conditions noted are these: for reversal of established CCI-induced allodynia: delivery intrathecally or systemically; for reversal of CCI-induced allodynia: 60 mg/kg s.c.; for reversal of neuropathic pain: rat, in vivo.

Assay [2] concerns morphine analgesia in rats. The assay is described as follows: Potentiation of acute morphine analgesia, Hargreaves test. The format is in vivo, rat.
The test system of a further assay is morphine-treated rats. The assay is described as follows: Chronic systemic morphine & (+)-naloxone experiment (Hargreaves, precipitated withdrawal, weight). The class given is in vivo, rat.
Assay [3] deals with HAPI microglial cell line. The assay is described as follows: HAPI microglial cell line activation by LPS, mRNA. The class given is cell-based. As to the method:
HAPI microglial cell line was used to examine the effects of (+)-naloxone on microglial activation by LPS. Whereas 100 ng/mL LPS produced elevations in mRNA for CD11b (microglial activation marker), interleukin (IL)-1b, and IL-6, 1 μM (+)-naloxone abolished each of these LPS-induced effects. See FIG. 20 (GAPDH=glyceraldehyde-3-phosphate-dehydrogenase).

Assay [4] has as its system astrocyte (GFAP) and microglia (CD11b/c) activation markers. The assay is described as follows: Glial activation markers (GFAP, CD11b/c) in L5 spinal cord of CCI rats, immunohistochemistry. The format is in vivo, rat. As to conditions: 60 μg/hr intrathecal across 4 days, vs vehicle; for CD11b/c expression: bilaterally; for GFAP expression in ipsilateral or contralateral dorsal horns: densitometry. The method, then: Following the final behavioral testing rats were transcardially perfused first with isotonic saline and then with fresh 4% paraformaldehyde/0.1 M phosphate buffer (4% PFA/PB, pH 7.4). After dissection and immersion post-fixation in 4% PFA/PB for an additional 24 hr, the lumbar spinal cords then dehydrated in 30% sucrose with 0.1% azide at 4° C. until slicing.
For immunohistochemistry, sections were treated to suppress endogenous peroxidase and to prevent staining of endogenous biotin. The sections were incubated in either primary mouse monoclonal anti-rat glial fibrillary acidic protein (GFAP) (1:500; to visualize astrocyte astrocyte activation; ICN Biomedicals, Costa Mesa, Calif.) or primary mouse monoclonal anti-rat OX-42 (1:500; to visualize microglial activation; BioSource, Camarillo, Calif.) for 24 hr at 4° C. The slides were then incubated in secondary biotinylated goat anti-mouse IgG antibody (1:500; Jackson ImmunoResearch, West Grove, Pa.) overnight at 4° C. Finally sections were reacted using the avidin-biotin complex procedure (ABC, Vector Elite kit; 1:100 in PBS-Triton; 2 hr; Vector laboratories, Burlingame, Calif.) and 3′,3′-diaminobenzidine (DAB; Sigma-Aldrich). Glucose oxidase (Sigma-Aldrich; type V-s; 0.02%) and beta-D-glucose (0.1%) were used to generate hydrogen peroxide. […] ammonium sulfate was added to the DAB solution (0.025% w/v) to intensify the reaction product. One series of sections was processed as described above except that the primary antibody was omitted from the incubation buffer (omission controls). The slides were dried overnight, cleared, and cover slipped.
Slides were viewed with an Olympus Vannox II bright-field microscope. Images were collected with a Cohu CCD camera coupled to an Apple PowerMac 7200 equipped with NIH Image software (version 1.60). Brightness and contrast were kept constant with the images not altered. The intensity of the light source was calibrated each day.
Representative sections (10×) of ipsilateral dorsal horns of neuropathic (CCI) rats treated intrathecally with 60 μg/hr (+)-naloxone ([…]), 60 μg/hr (−)-naloxone (FIG. 18F), and vehicle (FIG. 18G) are shown. […] Scale bar=500 μm.

In assay [5] the test system is RAW264.7 mouse macrophage cell line expressing GFP-tagged Akt1 (TLR4 signaling). The class given is cell-based.
Setting [6] is: about 20 μg co-administered with morphine intrathecally.
Where [7] appears, read: 12 mg/day s.c. minipump with 6 mg/day morphine, 7 days.

Entries after “also recorded” stand apart in the source; their conditions may differ.

T1 sequence (O00206 24-839): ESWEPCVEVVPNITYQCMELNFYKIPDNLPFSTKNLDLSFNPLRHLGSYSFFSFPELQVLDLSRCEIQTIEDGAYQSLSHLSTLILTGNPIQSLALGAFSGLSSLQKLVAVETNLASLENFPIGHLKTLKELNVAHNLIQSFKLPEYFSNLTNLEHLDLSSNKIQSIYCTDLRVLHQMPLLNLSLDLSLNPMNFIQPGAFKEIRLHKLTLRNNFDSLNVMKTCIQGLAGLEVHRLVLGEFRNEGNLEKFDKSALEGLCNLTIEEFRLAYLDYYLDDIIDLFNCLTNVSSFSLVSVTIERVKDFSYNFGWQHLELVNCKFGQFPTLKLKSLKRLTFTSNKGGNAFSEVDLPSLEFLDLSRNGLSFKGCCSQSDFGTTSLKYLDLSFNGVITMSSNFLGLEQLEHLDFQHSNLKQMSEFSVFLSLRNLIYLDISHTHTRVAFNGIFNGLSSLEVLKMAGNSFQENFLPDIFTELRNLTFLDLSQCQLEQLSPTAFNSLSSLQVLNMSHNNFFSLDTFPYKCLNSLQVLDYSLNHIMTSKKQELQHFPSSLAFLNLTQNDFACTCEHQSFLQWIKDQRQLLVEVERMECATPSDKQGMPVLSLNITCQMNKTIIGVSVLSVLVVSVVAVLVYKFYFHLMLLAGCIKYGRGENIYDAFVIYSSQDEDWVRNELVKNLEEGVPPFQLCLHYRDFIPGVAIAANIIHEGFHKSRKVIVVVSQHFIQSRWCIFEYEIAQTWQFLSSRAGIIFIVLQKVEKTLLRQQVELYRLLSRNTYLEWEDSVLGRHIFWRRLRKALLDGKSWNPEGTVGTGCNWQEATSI
T1 sequence (Q9Y6Y9 17-160 partner limits assumed): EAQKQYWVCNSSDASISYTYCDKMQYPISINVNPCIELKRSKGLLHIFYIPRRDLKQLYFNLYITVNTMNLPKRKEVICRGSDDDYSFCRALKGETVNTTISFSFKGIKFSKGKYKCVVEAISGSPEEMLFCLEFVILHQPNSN

With `CCC(=O)C(CC(C)N(C)C)(c1ccccc1)c1ccccc1` (centres unmarked) [methadone, reference compound], the TLR4 agonist activity entry on human TLR4 is reported as “TLR4 agonists”.

Turning to `CCC(=O)C(C[C@H](C)N(C)C)(c1ccccc1)c1ccccc1` [(+)-methadone], in the assay on TLR4 mRNA, the “TLR4 mRNA in lumbar dorsal spinal cord” value is listed as “significant elevation”.

Take `O=C1CC[C@]2(O)[C@@H]3Cc4ccc(O)c5c4[C@]2(CCN3CC2CC2)[C@@H]1O5` [(+)-naltrexone]: in assay [1], the “reversal of established CCI-induced allodynia” value is “reversed established CCI-induced allodynia”. In addition, the morphine analgesia result in assay [2] (setting [6]) was “significant potentiation of analgesia”.

For the compound `CN1CC[C@]23c4c5ccc(O)c4O[C@H]2[C@@H](O[C@@H]2O[C@H](C(=O)O)[C@@H](O)[C@H](O)[C@H]2O)C=C[C@H]3[C@H]1C5` [M6G, morphine-6-glucuronide, reference compound], the TLR4 agonist activity result at human TLR4 was “not found to have any significant TLR4 agonist activity”.

Consider (−)-methadone, for which the “TLR4 mRNA in lumbar dorsal spinal cord” value in the assay with TLR4 mRNA is listed as “significant elevation”.

Regarding `C=CCN1CC[C@]23c4c5ccc(O)c4O[C@H]2C(=O)CC[C@]3(O)[C@H]1C5` [(+)-naloxone, (+)-Naloxone], in assay [1] (30 min), the “reversal of CCI-induced allodynia” value is “not significantly”. Besides, the “reversal of CCI-induced allodynia” value in assay [1] (90 min) was “reversed CCI-induced allodynia; also recorded: reversed established allodynia; also recorded: acutely reverses”. In addition, the “ipsilateral and contralateral mechanical allodynia” value in assay [1] (100 mg/kg subcutaneous, 14 days after CCI) is reported as “reliable attenuation”. The “reversal of neuropathic pain” value in assay [1] is listed as “reverses neuropathic pain”. In the assay with morphine-treated rats (setting [7]), the “development of morphine-induced hyperalgesia” value is “blocked the development of morphine-induced hyperalgesia”, the development of tolerance entry is given as “attenuated the development of tolerance”, the morphine analgesia result is “potentiated” and the weight gain entry is recorded as “enabled normal weight gain”. The withdrawal behaviors result in the assay with morphine-treated rats (withdrawal precipitated by 100 mg/kg (−)-naltrexone on day 7) is reported as “reduced withdrawal behaviors”. Further, in assay [3] (1 μM with 100 ng/mL LPS), the “LPS-induced elevation in mRNA for CD11b” value is reported as “abolished”, the “LPS-induced elevation in mRNA for IL-6” value is recorded as “abolished” and the “LPS-induced elevation in mRNA for interleukin (IL)-1b” value was “abolished”. Further, at human TLR4, the “M3G induced TLR4 signaling” value is “attenuation”, the “antagonism of LPS activity at TLR4” value was “significant non-competitive antagonism; also recorded: non-competitively antagonizes”, the “effect on basal unstimulated SEAP expression” value is recorded as “no substantial effect” and the “increase in the EC50 of LPS” value is 3 fold. Besides, on human TLR4, the “morphine induced TLR4 signaling” value is given as “attenuation” and the “reduction in the Emax of LPS” value is 40%. Further, in assay [4], the CD11b/c expression entry is “reliable suppression” and the “GFAP expression in ipsilateral or contralateral dorsal horns” value is “neither (+)-nor (−)-naloxone affected”. Moreover, the morphine analgesia entry in assay [2] (20 μg intrathecal with subcutaneous morphine 4 mg/kg) was “significantly potentiated; also recorded: potentiation”. In addition, the morphine analgesia result in assay [2] (setting [6]) is “significant potentiation of analgesia”. Further, the “morphine-induced Akt1 response” value in assay [5] (morphine 100 μM) is “blocked”. Also, the “LPS-induced Akt1 response” value in assay [5] (preincubation 1mM prior to LPS 7.5 μg/mL) is reported as “significantly attenuated”.

Regarding `C=CCN1CC[C@]23c4c5ccc(O)c4O[C@H]2C(=O)CC[C@@]3(O)[C@H]1C5` [naloxone, reference compound], in assay [1] (chronic intrathecal osmotic minipump, 20 or 60 ug/hr, 4-96 hr), the “ipsilateral and contralateral allodynia” value is listed as “attenuation”.

In the case of (−)-naltrexone [reference compound], the “reversal of established CCI-induced allodynia” value in assay [1] is recorded as “reversed established CCI-induced allodynia”.

As to `COc1ccc2c3c1O[C@H]1C(=O)CC[C@@]4(O)[C@@H](C2)N(C)CC[C@]314` [oxycodone, reference compound], the TLR4 agonist activity result on human TLR4 is reported as “TLR4 agonists”.

Take “Lipopolysaccharide [LPS, reference compound]”: in assay [3] (100 ng/mL), the “mRNA for CD11b” value is on record as “elevations”, the “mRNA for IL-6” value is “elevations” and the “mRNA for interleukin (IL)-1b” value is “elevations”. On human TLR4, the “EC50 (SEAP expression)” value is 0.21 ng/mL and the “Emax (SEAP expression)” value is listed as 40,956 arbitrary fluorescence units. Besides, in assay [5], the “clearance of GFP-Akt1 from the cytosol” value is recorded as “robust, rapid clearance”.

With `CCOC(=O)C1(c2ccccc2)CCN(C)CC1` [pethadine/meperidine, meperidine, reference compound], on human TLR4, the TLR4 agonist activity result is recorded as “TLR4 agonists”.

Regarding (−)-naloxone [reference compound], in assay [1], the “reversal of neuropathic pain” value is “reverses neuropathic pain”. In addition, in assay [4], the CD11b/c expression entry was “reliable suppression” and the “GFAP expression in ipsilateral or contralateral dorsal horns” value is recorded as “neither (+)-nor (−)-naloxone affected”.

As to `CN1CC[C@]23c4c5ccc(O[C@@H]6O[C@H](C(=O)O)[C@@H](O)[C@H](O)[C@H]6O)c4O[C@H]2[C@@H](O)C=C[C@H]3[C@H]1C5` [M3G, morphine-3-glucuronide, reference compound], the TLR4 agonist activity result at human TLR4 was “showed TLR4 agonist activity”.
